Assay results as given in patent publication US9687497B1, “Salts and polymorphs of cyclic boronic acid ester derivatives and therapeutic uses thereof” (Rempex Pharmaceuticals, Inc., priority 2014, dated 2017).
Like-named read-outs stand apart in the source and are kept apart here.

Assays:
[1] = counterion itself; cited from earlier work
[2] = Salt-screening study (crystalline form screening of Compound 1 with counterions); format: physicochemical; conditions: for formation of pure and stable crystalline salt form, overall salt screen: approximately 360 screening experiments, FT-Raman and PXRD
Protocol: During the salt-screening step, 60 combinations of […] counterions with nine solvent systems were tested.
The screening studies were conducted in two stages.
In Stage 1, the samples involving counterion Nos. 1-6 listed in Table 1 were paired with solvent Nos. 1-6 listed in Table 2, whereas samples involving counterion Nos. 7 and 8 were paired with solvent Nos. 1-5 and 8.
In Stage 2, a few samples that remained undissolved and amorphous in the first stage were 1) subjected to rapid solvent evaporation under vacuum; 2) dissolved in solvent Nos. 7-9 listed in Table 2; 3) cooled to 5° C. and held at 5° C. for 72 hrs; and 4) allowed to evaporate at ambient conditions over 3-7 days.
(§1) All samples were inspected visually and by Polarized light microscopy at every step listed above to check any formation of crystalline products. Any crystalline products obtained from these procedures were isolated by vacuum filtration and, where possible, analyzed by FT-Raman. Unique crystalline products were subjected to further analyses by PXRD, DSC, TGA-IR, and HPLC, as necessary.

[3] = HPLC analysis of salt-screening products for decomposition; format: physicochemical; conditions: solvent system THF and Water (95:5 vol %)
From the text: as §1

[4] = Open-air handling and stability of isolated potassium salt; format: physicochemical
Protocol: The potassium salt was subsequently reproduced at 50 mg and 300 mg scales using seeding, which facilitated crystallization of the several hours of amorphous intermediate phase. […] Once a free-flowing powder was isolated, the powder was stable in open-air for at least 7 days.

pKa of Compound 1 = format: physicochemical
[5] = Chemical stability of Compound 1 in solution; format: physicochemical; conditions: solutions having pH values between 2 and 8
[6] = Solubility of Compound 1 in salt-screening solvents; format: physicochemical; conditions: for solubility: organic solvent or mixture, read-out: solubility of Compound 1 (S)
Protocol: Nine solvent systems were evaluated in the Salt-screening study. The solvents were selected based on the solubility data accumulated during preceding studies. In addition, solvents represented a diverse set of polarities, dielectric constants, dipole moments, and hydrogen-bond donor/acceptor attributes to promote crystallization of salts.

In the case of `CC(C)(C)[O-].[K+]` [Potassium t-butoxide], the pKa3 [1] is listed as ~14.
For `[Ca+2].[OH-].[OH-]` [Calcium hydroxide], the “formation of pure and stable crystalline salt form, overall salt screen” value (“formation” for short) [2] was “no pure and stable crystalline salt was formed” and the “decomposition in screening products by HPLC” value (shortened to “decomposition”) [3] was “significant decomposition”.
For `O=C([O-])C[C@@H]1CC[C@H](NC(=O)Cc2cccs2)B(O)O1.[K+]` [Compound 1A, potassium salt of 2-((3R,6S)-2-hydroxy-3-(2-(thiophen-2-yl)acetamido)-1,2-oxaborinan-6-yl)acetic acid], the “formation” value [2] was “yielded a pure and stable crystalline form”, the “formation” value ([2]; listed as potassium salt of compound 1) was “yielded crystalline products” and the propensity for polymorphism ([2]; only one crystalline form observed in the study) was “low propensity for polymorphism”. The deliquescence on isolation ([4]; isolated in open air, reduced or eliminated under nitrogen blanket) was “may undergo deliquescence” and the “stability of isolated free-flowing powder in open-air” value ([4]; open air) was “at least 7 days”.
For `[K+]` [potassium], the “decomposition” value [3] was “significant decomposition”.
For `C[N+](C)(C)CCO.[OH-]` [Choline hydroxide], the “decomposition” value [3] is given as “significant decomposition” and the pKa3 [1] is given as >11.
In the case of `[Mg+2].[OH-].[OH-]` [Magnesium hydroxide], the “formation” value [2] is reported as “no pure and stable crystalline salt was formed” and the “decomposition” value [3] is reported as “significant decomposition”.
With `O=C(O)C[C@@H]1CC[C@H](NC(=O)Cc2cccs2)B(O)O1` [Compound 1, 2-((3R,6S)-2-hydroxy-3-(2-(thiophen-2-yl)acetamido)-1,2 oxaborinan-6-yl)acetic acid] the pKa (pKa of Compound 1) was 3.92, the “chemical stability of boronic acid moiety in solution” value [5] was “chemically stable” and the solubility ([6]; 1,4-dioxane) was 1 to 10 mg/mL. The solubility ([6]; MTBE) was < 1 mg/mL, the solubility ([6]; THEF Water (95:5% vol.)) was > 1 mg/mL and the “solubility of Compound 1” value ([6]; Water) was “Low solubility of Compound 1”. For the same compound, the solubility ([6]; acetone) was < 1 mg/mL, the solubility ([6]; acetonitrile (ACN)) was < 1 mg/mL and the solubility ([6]; ethyl acetate) was < 1 mg/mL. For the same compound, the solubility ([6]; ACN: Water (90:10% vol.)) was < 20 mg/mL.
